These results are taken from US20090010923A1, “TREATMENT OF CANCER WITH ANTI-MUSCARINIC RECEPTOR AGENTS” (University of Maryland, Baltimore, priority 2007, published 2009).

Entries after “also recorded” stand apart in the source; their conditions may differ.

The subject of data set [1] is H508 cells. Kind of data set: p44/42 MAPK phosphorylation/activation in H508 colon cancer cells. The format is cell-based, human. The text has this: (§1) In H508 colon cancer cells, acetylcholine (ACh) activates p44/42 MAPK and p90RSK, which is a nuclear response protein that regulates gene expression and the cell cycle.
Data set [2] relates to CHO cells expressing rat M3R (CHO-rM3R). Kind of data set: p44/42 MAPK phosphorylation in CHO cells expressing rat M3R. The format is cell-based.
Description: as §1

For data set [3] the following is noted: cited from earlier work.
Data set [4] concerns muscarinic receptors on gastric chief cells. In words: Pepsinogen secretion from gastric chief cells. The format is cell-based.
The test system is the same in data set [5]. In words: Competition for binding with a muscarinic radioligand, gastric chief cells.
The test system is the same in data set [6]. In words: IP formation, gastric chief cells. It is filed as cell-based.
Data set [7] concerns H508 cells. Kind of data set: Cell proliferation, sulforhodamine B (SRB) colorimetric assay, H508 cells. The format is cell-based, human. As to conditions: 5 days, 37° C.; for proliferation of H508 cells: alone, cells co-express M3R and EGFR. The method, then:
(§2) FIG. 1 depicts bile acid-induced colon cancer cell proliferation which requires M3R expression and activation in H508 and SNU-C4 cells. […] Cell proliferation was determined using the sulforhodamine B (SRB) colorimetric assay. Mean±SEM of 3 exp.
(§3) Cells that are known to express both EGFR and M3R were treated with several M3R antagonists and bile acid conjugates to determine if M3R ligand binding affected EGFR activation. […] Cell proliferation was determined using the sulforhodamine B (SRB) colorimetric assay. […] Mean±SEM of 3 exp.
MAPK activation was detected with 10 μM and maximal with 300 μM DCT. […] DCT-induced MAPK activation is rapid and reversible. MAPK activation is detected within 1 min, maximal by 10-20 min and returns to basal by 70 min. Collectively these findings emphasize the importance of co-expression of M3R and EGFR for both ACh- and bile acid-induced colon cancer cell proliferation, and define relevant DCT concentrations.
(In general: The SRB assay estimates cell density from bound dye.)

The subject of another data set is SNU-C4 cells. Kind of data set: Cell proliferation, sulforhodamine B (SRB) colorimetric assay, SNU-C4 cells. The format is cell-based, human. As to conditions: 5 days, 37° C., alone; cells express EGFR but not M3R. The method, then: as §2, §3
Another data set deals with WT and M3R−/− mice. In words: AOM murine colon cancer model (WT and M3R-/- mice). It is filed as in vivo, mouse. As to conditions: for colon tumor number: 20 weeks. As to the method: WT and M3R^−/− male mice (129S6/SvEvTac×CFl; 50%/50%) were treated for 6 wks in which 48 animals received weekly intraperitoneal (ip) PBS (control) or AOM (10 mg/kg). The AOM mouse model is a well-established, commonly used model that mimics human colon carcinogenesis. AOM, an intermediate in the metabolism of 1,2-dimethylhydrazine to the alkylating ion methyldiazonium, is a well-known colorectal-specific pro carcinogen. AOM-induced rodent tumors mimic human colon cancer in that most tumors arise in the colon, form grossly visible exophytic polypoid or plaque-like growths, and have a microscopic appearance similar to that of human lesions. Molecular changes in AOM-induced tumors, including β-catenin and p53 mutations, which also mimic those in human colon cancer. […] Short-term study end-points are identified (e.g. aberrant crypt foci (ACF), β-catenin-accumulating crypts (BCAC) and BrdUrd staining) and potential toxicity was evaluated, a smaller group of mice is euthanized early, upon completion of AOM treatment. During the study, WT and M3R^−/− mice were given weekly (for 6 weeks) intraperitoneal (ip) PBS (control; n=10 WT-PBS mice) or AOM (10 mg/kg; n=22 WT-AOM and 16 WT and M3R^−/−-AOM mice). […] Animals were housed under identical conditions and fed standard mouse chow. Mice were weighed weekly, observed for evidence of tumor formation (e.g., anal bleeding) and euthanized at 20 weeks. Colon length was measured, segments opened longitudinally, and tumors identified and photographed using a Nikon SMZ1500 dissecting microscope. Tumor number and diameter were measured using Image-Pro software and tumor volume was calculated: vol=½ width×length^2. Two hours before euthanasia, mice received intraperitoneal injection of BrdU (Sigma-Aldrich) (50 mg/kg) to label S-phase cells, a marker of proliferation. BrdU labeling was determined after immunostaining with anti-BrdU antibody (BD Bioscience) by counting BrdU-positive nuclei in 1000 cells (data expressed as percent of total cells that were BrdU-positive). As a marker of apoptosis, we used immunostaining with anti-activated caspase-3 antibody (Cell Signaling Technology). Only complete crypts were evaluated and investigators were masked to treatment group. For analysis of both BrdU and activated caspase-3 staining, only tissue from the distal half of the colon was examined.

In data set [8] the test system is colon cancer cells. In words: Post-EGFR PI3K/Akt and GSK-3 signaling in colon cancer cells. The format is cell-based. The source says: The rationale for including both murine colon cancer models in this study is to observe important differences between these cancer models. Although the Apc^Min/+ genotype mimics more closely the human condition (e.g. FAP), the AOM-treated mouse phenotype is more similar to human colon cancer. […] Additionally, Apc^Min/+ mice provide an opportunity to study the relationship between M3R and activation and expression of genes in the Wnt/β-catenin signaling pathway. Binding of Wnt to its cell surface receptor (Frizzled) leads to activation of β-catenin (nuclear translocation and binding to Tcf/LEF, resulting in transcription of important target genes, including cyclin D1). Apc, is a scaffold protein that promotes GSK-3α/β-mediated phosphorylation of β-catenin; phosphorylated β-catenin is targeted for proteosomal degradation, thereby preventing nuclear translocation and pro-proliferative gene transcription. Mutated Apc in Apc^Min/+ mice results in reduced β-catenin phosphorylation, thereby promoting nuclear translocation and pro-proliferative actions. […] These findings provide strong evidence that bile acid-activated M3R signaling can promote pro-proliferative actions of β-catenin. The Apc^Min/+ mouse provides an excellent model to elucidate the role of M3R activation and expression in Wnt/β-catenin signaling.
(§4) apoptosis, or both. Deoxycholic acid induces apoptosis.

Data set [9] has as its system colon cancer cells. In words: Caspase-3 activation (apoptosis) in colon cancer cells. It is filed as cell-based.
Description: as §4

Another data set relates to M1R and M3R. The source says: Muscarinic receptor subtypes were expressed in murine gastric chief cells using M1R^−/−, M3R^−/− and M1/3R^−/− mice. […] The mice were generated using gene targeting.

Regarding `CC(=O)OCC[N+](C)(C)C` [ACh, acetylcholine], the “ACh-induced p44/42 MAPK phosphorylation” value in the data set on H508 cells [1] (H508 cells) came to 14 fold; in data set [2] it was 27 fold.
`CCCC[N+]1(C)[C@@H]2C[C@@H](OC(=O)[C@H](CO)c3ccccc3)C[C@H]1[C@@H]1O[C@@H]12` (stereo partly drawn) [scopolamine butylbromide]: in data set [3] (in vivo), the activity of metabolites result is “inactive”, the “half-life of the terminal elimination phase” value is reported as “about 5 hr” and the protein binding entry was “low”. The blood-brain barrier crossing result in [3] (quaternary ammonium derivative) is “does not cross the blood-brain barrier”.
Consider cholyltaurine, for which, in data set [4], the pepsinogen secretion result is reported as “did not alter”. In addition, in [5], the “competition for binding with a muscarinic radioligand” value (“competition for binding” below) is “did not alter”. In addition, in data set [6], the IP formation entry is “did not alter”.
Turning to `C[C@H](CCC(=O)NCC(=O)O)[C@H]1CC[C@H]2[C@@H]3CC[C@@H]4C[C@H](O)CC[C@]4(C)[C@H]3C[C@H](O)[C@]12C` [DCG], the “proliferation of H508 cells” value with H508 cells [7] is recorded as “stimulate proliferation”. The “proliferation of SNU-C4 cells” value in the data set on SNU-C4 cells is “do not significantly alter proliferation”.
Consider `CN=[N+](C)[O-]` [AOM, azoxymethane], for which, in the data set with WT and M3R−/− mice (AOM-treated M3R-/- mice), the “BrdU-positive cells in colon epithelium” value is on record as 7.2±0.9%, the adenocarcinomas/mouse came out at 0.6±0.1, the mice with adenomas is listed as 6% and the tumor volume came to 8.1±1.5 mm^3. This compound returned a colon tumor number in the data set with WT and M3R−/− mice (AOM-treated M3R-/- mice) of 3.2±0.3 tumors/colon. In the data set with WT and M3R−/− mice (AOM-treated WT mice), the “BrdU-positive cells in colon epithelium” value is listed as 16.6±4.0%, the adenocarcinomas/mouse amounted to 1.7±0.4, the mice with adenomas turned out to be 36% and the tumor volume came to 20.3±4.1 mm^3. Also, in the data set with WT and M3R−/− mice (AOM-treated WT mice), the colon tumor number was 5.3±0.5 tumors/colon. In addition, the “increase in BrdU-positive epithelial cells” value in the data set on WT and M3R−/− mice (AOM-treated WT mice vs PBS-treated WT, 10 mg/kg ip weekly x 6 wks, 20 wks) amounted to 5 fold. In the data set with WT and M3R−/− mice (PBS-treated WT, AOM-treated WT and M3R-/- mice), the “number of apoptotic cells (activated caspase-3)” value is reported as “no significant difference”. In the data set with WT and M3R−/− mice (WT mice treated with AOM), this compound returned an increase in tumors/animal of 5 fold.
On to `CN1[C@@H]2CC[C@H]1C[C@@H](OC(=O)C(CO)c1ccccc1)C2` (stereo partly drawn) [atropine], for which, in data set [4], the “inhibition of the actions of LCT” value is “inhibited the actions of LCT”. Besides, in the data set with H508 cells [7] (with DCT), the “inhibition of actions of DCT on H508 proliferation” value is listed as “inhibited”.
As to `NCCS(=O)(=O)O` [taurine], in [4], the pepsinogen secretion result is reported as “did not alter”. The “competition for binding” value in [5] is “did not alter”. Further, the IP formation result in [6] is “did not alter”.
As to `C[C@H](CCC(=O)NCCS(=O)(=O)O)[C@H]1CC[C@H]2[C@@H]3CC[C@@H]4C[C@H](O)CC[C@]4(C)[C@H]3C[C@H](O)[C@]12C` [DCT, Deoxycholyltaurine], the “proliferation of H508 cells” value with H508 cells [7] is “stimulate proliferation; also recorded: stimulated after 5 days”. For the same compound, the “phosphorylation of GSK-3α/β” value in the data set with colon cancer cells [8] (colon cancer cells) is on record as “stimulates an inactivating phosphorylation”. For the same compound, the “post-EGFR PI3K/Akt signaling” value in the data set with colon cancer cells [8] (preliminary studies) is “activates”. In the data set with H508 cells [1], the “DCT concentration at which MAPK activation was detected” value was 10 µM, the “DCT concentration at which MAPK activation was maximal” value is 300 µM, the “time at which MAPK activation is detected” value is listed as not above 1 min and the “time at which MAPK activation returns to basal” value is not above 70 min. Further, the “time of maximal MAPK activation” value in the data set on H508 cells [1] was in the range of 10 to 20 min. For the same compound, the “proliferation of SNU-C4 cells” value in the data set on SNU-C4 cells was “do not significantly alter proliferation”. The “DCT-induced apoptosis (caspase-3 activation)” value with colon cancer cells [9] is “no evidence of DCT-induced apoptosis”.
Regarding `C[C@H](CCC(=O)NCCS(=O)(=O)O)[C@H]1CC[C@H]2[C@@H]3CC[C@@H]4C[C@H](O)CC[C@]4(C)[C@H]3CC[C@]12C` [LCT, lithocholyltaurine], in data set [4], the pepsinogen secretion result was “stimulating pepsinogen secretion”. Further, the “proliferation of H508 cells” value in the data set with H508 cells [7] was “stimulate proliferation”. Moreover, the “competition for binding” value in [5] was “competed for binding”. In the data set with SNU-C4 cells, the “proliferation of SNU-C4 cells” value is reported as “do not significantly alter proliferation”. For the same compound, the IP formation result in [6] is “increased IP formation”.
Consider cholecystokinin [cholecystokinin (CCK)], for which the agonist-induced pepsinogen secretion entry in the data set on M1R and M3R is on record as “not altered”.
